Converted amounts (≈) assume the structure as drawn.
Key:
[1] = test system: Staphylococcus aureus (ATCC 6538P); assay: Antibacterial assay (MIC), Staphylococcus aureus ATCC 6538P, Luria Broth, Example 1; format: cell-based; details: Staphylococcus aureus, ATCC6538P; Example 1 compounds; S. aureus ATCC 6538P; 24 hrs, 37° C.; range if at least two of three values fell within it; read-out: Sa (minimum inhibitory concentration)
Experimental: (§1) Antibacterial Assay Method for Staphylococcus aureus (ATCC 6538P) and Enterococcus faecium
Staphylococcus aureus (ATCC 6538P)
(§2) Compounds are accurately weighed out (between approx. 1-2 mg) and dissolved in either 10% methanol/water (v/v) or 100% DMSO to a final stock concentration of 5 mg/ml.
(§3) Compounds are then diluted 1/10 in H2O to a test conc of 500 ug/ml ready for immediate use, or storage at −20° C.
(§4) Grow up an o/n starter culture of Staphylococcus aureus and each VRE strain by diluting previous culture (stored at 4° C.) 1/1000 into −50 mls Luria Broth (LB) for S. aureus or Enterococossel Broth (EB) for the VRE strains.
(§5) Incubate o/n at 37° C.+shaking. • A glycerol stock (0.6 mls bacterial culture, 0.3 mls glycerol) of each strain is kept at −80° C. if needed. Assay Set Up:
(§6) In a 96well round bottom plate add 50 ul LB/well for the S. aureus plate and add 50 ul EB/well for the VRE plates.
(§7) Add 50 ul of compound dilution (500 ug/ml test conc) to each of three top row wells (ie: tested in triplicate) and dilute 1 in 2 from the top row to the bottom row.
(§8) After the compound dilution, add to each well 50 ul of a 1/1000 dilution of the appropriate overnight bacterial culture, either S. aureus or the different VRE strains.
(§9) Plates are incubated at 37° C. on a slowly rotating plate incubator. • test concentrations are (in ug/ml) 125, 62.5, 31.25, 15.6, 7.8, 3.9, 1.9, 0.98 • final DMSO concentration in the first row of wells of the assay is 2.5% • Vancomycin is included in the assay (in triplicate) at a starting test concentration of 5 ug/ml for S. aureus and 125 ug/ml for the VRE strains Reading Results of Assay:
(§10) After incubation for 24 hrs the plates are removed and read. Inhibition of bacterial growth is indicated by lack of bacterial pellet or a clear well. In the VRE plates bacterial growth is indicated by black coloured media (EB) as well as a bacterial pellet.
(§11) Untreated control wells are included in the assay to check they all contain bacterial pellets. Uninoculated untreated control wells are included to check they all contain clear medium.
(§12) The plates are analysed for MIC and the results tabulated.

[2] = test system: #243 E. faecium van B ST17; assay: Antibacterial assay (MIC), VRE strain #243, Enterococossel Broth, Example 1; format: cell-based, Enterococcus faecium; details: Enterococcus faecium; Example 1 compounds; VRE #243 E. faecium van B; 24 hrs, 37° C.; read-out: 243 (minimum inhibitory concentration)
Experimental: as §1
(§13) VRE strains: #243 E. faecium van B ST17 #449 E. faecium van B ST17
as §2, §3, §4, §5, §6, §7, §8, §9, §10, §11, §12

[3] = test system: #449 E. faecium van B ST17; assay: Antibacterial assay (MIC), VRE strain #449, Enterococossel Broth, Example 1; format: cell-based, Enterococcus faecium; details: Enterococcus faecium; Example 1 compounds; VRE #449 E. faecium van B; 24 hrs, 37° C.; read-out: 449 (minimum inhibitory concentration)
Experimental: as §1, §13, §2, §3, §4, §5, §6, §7, §8, §9, §10, §11, §12

[4] = test system: #820 E. faecium van A ST17; assay: Antibacterial assay (MIC), VRE strain #820, Enterococossel Broth, Example 1; format: cell-based, Enterococcus faecium; details: Enterococcus faecium; Example 1 compounds; VRE #820 E. faecium van A; 24 hrs, 37° C.; read-out: 820 (minimum inhibitory concentration)
Experimental: as §1
(§14) #820 E. faecium van A ST17 #987 E. faecium van B ST39
as §2, §3, §4, §5, §6, §7, §8, §9, §10, §11, §12

[5] = test system: #987 E. faecium van B ST39; assay: Antibacterial assay (MIC), VRE strain #987, Enterococossel Broth, Example 1; format: cell-based, Enterococcus faecium; details: Enterococcus faecium; Example 1 compounds; VRE #987 E. faecium van B; 24 hrs, 37° C.; read-out: 987 (minimum inhibitory concentration)
Experimental: as §1, §14, §2, §3, §4, §5, §6, §7, §8, §9, §10, §11, §12

| Structure (SMILES) | MIC [1] | MIC [2] | MIC [3] | MIC [4] | MIC [5] |
| --- | --- | --- | --- | --- | --- |
| C=CC[C@H](NC(=O)[C@@H](CCCNC(=N)N)NC(=O)[C@@H](CCCCN)NC(=O)COc1ccc2ccccc2c1-c1c(OCCCCC)ccc2ccccc12)C(=O)OCc1ccccc1.Cl.Cl (atropisomer, axis not shown) [Compound 26] | 0.99 to 15.6 µg/mL | 15.7 to 62.5 µg/mL | 15.7 to 62.5 µg/mL | 15.7 to 62.5 µg/mL | 15.7 to 62.5 µg/mL |
| Cl.Cl.NCCCC[C@@H](NC(=O)CCCOc1ccc2ccccc2c1-c1c(OCCCC(=O)N[C@H](CCCCN)C(=O)OCc2cccc3ccccc23)ccc2ccccc12)C(=O)OCc1cccc2ccccc12 (atropisomer, axis not shown) [Compound 35] | 0.99 to 15.6 µg/mL | > 62.6 µg/mL | > 62.6 µg/mL | 15.7 to 62.5 µg/mL | > 62.6 µg/mL |
| C=CC[C@H](NC(=O)[C@@H](CCCNC(=N)N)NC(=O)[C@@H](CCCCN)NC(=O)COc1ccc2ccccc2c1-c1c(OCC2CCC2)ccc2ccccc12)C(=O)OCc1ccccc1.Cl.Cl (atropisomer, axis not shown) [Compound 24] | 0.99 to 15.6 µg/mL | 15.7 to 62.5 µg/mL | 15.7 to 62.5 µg/mL | 15.7 to 62.5 µg/mL | 15.7 to 62.5 µg/mL |
| CC(C)CCOc1ccc2ccccc2c1-c1c(OCC(=O)N[C@H](CCCCN)C(=O)N[C@H](CCCNC(=N)N)C(=O)N[C@@H](CC(C)C)C(=O)OCCc2ccccc2)ccc2ccccc12.Cl.Cl (atropisomer, axis not shown) [Compound 13] | 0.99 to 15.6 µg/mL | 15.7 to 62.5 µg/mL | 15.7 to 62.5 µg/mL | 15.7 to 62.5 µg/mL | 15.7 to 62.5 µg/mL |
| N=C(N)NCCC[C@@H](NC(=O)CCCOc1ccc2ccccc2c1-c1c(OCCCC(=O)N[C@H](CCCNC(=N)N)C(=O)OCc2ccccn2)ccc2ccccc12)C(=O)OCc1ccccn1 [Compound 37] | 0.99 to 15.6 µg/mL (≈ 1.04 to 16.4 µM) | > 62.6 µg/mL | > 62.6 µg/mL | > 62.6 µg/mL | > 62.6 µg/mL |
| CC(C)CCOc1ccc2ccccc2c1-c1c(OCC(=O)N[C@H](CCCCN)C(=O)N[C@H](CCCNC(=N)N)C(=O)N[C@@H](CC(C)C)c2ncc(Cc3ccccc3)o2)ccc2ccccc12.Cl.Cl (atropisomer, axis not shown) [Compound 18] | 0.99 to 15.6 µg/mL | 15.7 to 62.5 µg/mL | 15.7 to 62.5 µg/mL | 15.7 to 62.5 µg/mL | 15.7 to 62.5 µg/mL |
| CC(C)C[C@H](NC(=O)[C@@H](CCCNC(=N)N)NC(=O)[C@@H](CCCCN)NC(=O)COc1ccc2ccccc2c1-c1c(OCCc2ccccc2)ccc2ccccc12)C(=O)OCc1ccccc1.Cl.Cl (atropisomer, axis not shown) [Compound 28] | 0.99 to 15.6 µg/mL | 15.7 to 62.5 µg/mL | 15.7 to 62.5 µg/mL | 15.7 to 62.5 µg/mL | 15.7 to 62.5 µg/mL |
| CC(C)CCOc1ccc2ccccc2c1-c1c(OCC(=O)N[C@H](CCCCN)C(=O)N[C@H](CCCNC(=N)N)C(=O)N[C@@H](CC(C)C)C(=O)OCc2ccc(Cl)cc2)ccc2ccccc12.Cl.Cl (atropisomer, axis not shown) [Compound 4] | 0.99 to 15.6 µg/mL | 15.7 to 62.5 µg/mL | 15.7 to 62.5 µg/mL | 15.7 to 62.5 µg/mL | 15.7 to 62.5 µg/mL |
| CC(C)CCOc1ccccc1-c1ccccc1OCC(=O)N[C@H](CCCCN)C(=O)N[C@H](CCCNC(=N)N)C(=O)N[C@@H](CC(C)C)C(=O)OCc1ccccc1.Cl.Cl [Compound 11] | 0.99 to 15.6 µg/mL | 15.7 to 62.5 µg/mL | 15.7 to 62.5 µg/mL | 15.7 to 62.5 µg/mL | 15.7 to 62.5 µg/mL |
| CC(C)CCOc1ccc2ccccc2c1-c1c(OCC(=O)N[C@H](CCCCN)C(=O)N[C@H](CCCNC(=N)N)C(=O)N[C@@H](Cc2ccccc2)C(=O)OCc2ccccc2)ccc2ccccc12.Cl.Cl (atropisomer, axis not shown) [Compound 19] | 0.99 to 15.6 µg/mL | 15.7 to 62.5 µg/mL | 15.7 to 62.5 µg/mL | 15.7 to 62.5 µg/mL | 15.7 to 62.5 µg/mL |
| CC(C)CCOc1ccc2ccccc2c1-c1c(OCC(=O)N[C@H](CCCCN)C(=O)N[C@H](CCCNC(=N)N)C(=O)N[C@@H](CC(C)C)C(=O)OCc2c(Cl)cccc2Cl)ccc2ccccc12.Cl.Cl (atropisomer, axis not shown) [Compound 8] | 15.7 to 62.5 µg/mL | > 62.6 µg/mL | > 62.6 µg/mL | > 62.6 µg/mL | > 62.6 µg/mL |
| CC(C)CCOc1ccc2ccccc2c1-c1c(OCC(=O)N[C@H](CCCCN)C(=O)N[C@H](CCCNC(=N)N)C(=O)N[C@@H](CC(C)C)C(=O)OCc2ccccc2)ccc2ccccc12 (atropisomer, axis not shown) [Compound 10] | 0.99 to 15.6 µg/mL (≈ 1.1 to 17.3 µM) | 15.7 to 62.5 µg/mL (≈ 17.4 to 69.3 µM) | 15.7 to 62.5 µg/mL (≈ 17.4 to 69.3 µM) | 15.7 to 62.5 µg/mL (≈ 17.4 to 69.3 µM) | 15.7 to 62.5 µg/mL (≈ 17.4 to 69.3 µM) |
| C=CCOc1ccc2ccccc2c1-c1c(OCC(=O)N[C@H](CCCN)C(=O)Nc2cccc(C(=O)OCc3ccccc3)c2)ccc2ccccc12.Cl (atropisomer, axis not shown) [Compound 42] | 15.7 to 62.5 µg/mL | > 62.6 µg/mL | > 62.6 µg/mL | > 62.6 µg/mL | > 62.6 µg/mL |
| C=CC[C@H](NC(=O)[C@@H](CCCNC(=N)N)NC(=O)[C@@H](CCCCN)NC(=O)COc1ccc2ccccc2c1-c1c(OCC2CCCCC2)ccc2ccccc12)C(=O)OCc1ccccc1.Cl.Cl (atropisomer, axis not shown) [Compound 23] | 0.99 to 15.6 µg/mL | 15.7 to 62.5 µg/mL | 15.7 to 62.5 µg/mL | 15.7 to 62.5 µg/mL | 15.7 to 62.5 µg/mL |
| C=CCOc1ccc2ccccc2c1-c1c(OCC(=O)N[C@H](CCCNC(=N)N)C(=O)Nc2cccc(C(=O)OCc3ccccc3)c2)ccc2ccccc12.Cl (atropisomer, axis not shown) [Compound 45] | 0.99 to 15.6 µg/mL | 15.7 to 62.5 µg/mL | 15.7 to 62.5 µg/mL | 15.7 to 62.5 µg/mL | 15.7 to 62.5 µg/mL |
| C=CC[C@H](NC(=O)[C@@H](CCCNC(=N)N)NC(=O)[C@@H](CCCCN)NC(=O)COc1ccc2ccccc2c1-c1c(OCCC(C)C)ccc2ccccc12)C(=O)OCc1ccccc1.Cl.Cl (atropisomer, axis not shown) [Compound 29] | 0.99 to 15.6 µg/mL | 15.7 to 62.5 µg/mL | 0.99 to 15.6 µg/mL | 0.99 to 15.6 µg/mL | 15.7 to 62.5 µg/mL |
| Cl.Cl.N=C(N)NCCCC[C@@H](NC(=O)CCCOc1ccc2ccccc2c1-c1c(OCCCC(=O)N[C@H](CCCCNC(=N)N)C(=O)Oc2cccc3ccccc23)ccc2ccccc12)C(=O)Oc1cccc2ccccc12 (atropisomer, axis not shown) [Compound 40] | 0.99 to 15.6 µg/mL | > 62.6 µg/mL | > 62.6 µg/mL | 15.7 to 62.5 µg/mL | > 62.6 µg/mL |
| C=CCOc1ccc2ccccc2c1-c1c(OCC(=O)N[C@H](CCCNC(=N)N)C(=O)Nc2cccc(C(=O)OC)c2)ccc2ccccc12.Cl (atropisomer, axis not shown) [Compound 44] | 0.99 to 15.6 µg/mL | > 62.6 µg/mL | > 62.6 µg/mL | 15.7 to 62.5 µg/mL | > 62.6 µg/mL |
